# Results as given in article PMC8402609, “Guiding the Immune Response to a Conserved Epitope in MSP2, an Intrinsically Disordered Malaria Vaccine Candidate” (Vaccines, 2021).
# Where two headings read alike, the source gives them in different places. Where a SMILES comes first, the peptide text is derived from it. Bridges are numbered along the chain shown (N, C = ends).
# Tests used:
# [1] = biological target: 4D11 IgG; test: SPR competition binding assay, mAb 4D11; design: species or system mouse; settings: read-out: Kd against 4D11 IgG
# Procedure: (§1) Affinities for peptide epitopes and dimer peptides to 4D11 and 9H4 IgG were measured by surface plasmon resonance (SPR) (Biacore T200, GE Healthcare, Parramatta, Australia) using a competition assay method developed previously. First, 3D7 MSP2 was immobilised on a CM5 chip. To determine binding, eight three-fold dilutions of peptide, from 10 µM stock were added with 50 nM 4D11/9H4 IgG to compete with the immobilised antigen. A standard curve was established by flowing eight two-fold dilutions of 4D11 or 9H4 IgG from a 100 nM stock solution.
# Following the MD simulations, each peptide was synthesised by standard Fmoc synthesis. Orthogonal protection of cysteines was used to ensure that the desired disulfide bond was formed, leaving a single free cysteine for conjugation to an appropriate carrier for immunisation. […] Consequently, disulfide bond formation and cyclisation coupling were performed in solution. To determine if the additions incorporated into the dimer sequence hindered binding to 4D11, SPR was used to measure their binding affinity to the mAb (Table 2). […] For immunisations, the commonly used carrier protein, keyhole limpet hemocyanin (KLH) was chosen. As conjugation to KLH required a free thiol, an additional cysteine residue was included in all of the peptides (Figure 2).
# [2] = system: biotinylated 13-residue peptides (A-I) spanning the C-terminal region of MSP2; test: Fine specificity of antisera by peptide array ELISA (peptides A-I); type: in vivo, mouse; settings: individual sera of mice immunised with peptide-KLH conjugate or MSP2 mix, diluted 1:1000; indirect ELISA; peptides C-D span 9H4 epitope, E-G span 4D11 epitope
# Procedure: Peptide was conjugated to maleimide-activated KLH (Sigma-Aldrich) following the manufacturer’s protocol. Briefly, 1 mg of each peptide was mixed with 1 mg KLH in the provided buffer for a 200-fold molar excess of peptide to carrier protein. The reaction mixture was degassed under nitrogen and mixed at room temperature (RT) for 2 h. Any unreacted peptide was removed by dialysis against PBS using a 10 kDa cut-off membrane. The extent of conjugation was determined using Ellman’s reagent. Peptide-KLH conjugate stock solution was stored at 4 °C until further use. Prior to immunisation, peptide-KLH conjugates were diluted to 1 mg/mL in PBS and formulated with Montanide ISA720 at an antigen:adjuvant ratio of 3:7 and a final concentration of 0.3 mg/mL. The 3D7 + FC27 MSP2 mix was formulated using 0.15 mg/mL of each allelic form. Female C57BL/6 mice (n = 6 per group) were inoculated subcutaneously with 100 µL containing 30 µg of antigen at weeks 0, 4 and 8, then euthanised at week 10. Sera were collected and stored at −80 °C.
# To determine peptide-KLH binding to 4D11 and 9H4, Maxisorp 96-well microtitre plates (Nunc, Rochester, NY, USA) were coated overnight at 4 °C with 2 µg/mL peptide-KLH in PBS. The plates were blocked with 1% BSA in PBS for 1 h before adding 100 µL of 4D11 and 9H4 IgG in eleven half log10 serial dilutions starting from stock at 1 µg/mL. After 1 h incubation at 4 °C and washing, antigen-bound antibodies were detected with goat anti-mouse IgG (1:2000 dilution) and freshly prepared 2,2-azinobis(3-ethylbenzthiazolinesulfonic acid (ABTS) substrate (1 mm) in citric acid buffer, pH 4.2, containing […]. The absorbance was read at 405 nm using a microplate reader. For determination of peptide-specific antibody titres, peptide-BSA conjugate was coated on the plate at 2 µg/mL. Individual mouse sera were added at a starting dilution of 1000-fold with six half log10 serial dilutions. Endpoint titres were taken as the x-axis intercept of the dilution curve at an absorbance value of three standard deviations (s.d.) greater than OD405 for naïve mouse serum. The fine specificities of the antisera were determined by ELISA using an array of nine biotinylated 13-residue peptides (A-I), which overlap by 2 or 3 residues and spanned the C-terminal region of MSP2 [11, 13]. Maxisorp 96-well microtitre plates (Nunc) were coated overnight at 4 °C with 1 µg/mL streptavidin in PBS. The plates were blocked with 1% BSA in PBS for 2 h before adding 1:500 biotinylated peptides. Individual sera samples were diluted 1:1000 in blocking solution before addition to the peptide array. Antibody was detected with the same protocol as mentioned above.
# To characterise the response against these dimeric peptides further, the specificity of the induced antibodies was determined by indirect ELISA using an array of nine biotinylated peptides that spanned the epitopes recognised by the 4D11 and 9H4 mAbs (peptides A-I) (Table 3). Peptides C and D spanned the 9H4 epitope, whilst peptides E to G spanned the 4D11 epitope. […] However, the response against MSP2 was largely dominated by a single mouse in the group.
# [3] = system: 3D7 merozoites; test: Merozoite ELISA with pooled mouse sera, 3D7 merozoites; type: in vivo, P. falciparum; settings: pooled sera of immunised mice, two-fold dilutions from 1:500; merozoites 1 × 10^7/well; OD 450 nm; rank order in words
# Procedure: The reactivity of mouse polyclonal antibodies with merozoites was determined by ELISA using merozoites from both the 3D7 and FC27 (D10 clone) strains of P. falciparum. The parasites were cultured in human erythrocytes at a haematocrit of 3% in RPMI media supplemented with […]. Viable merozoites were isolated as described previously. Highly synchronised late-stage schizonts were magnet-purified via a MACS magnet separation column (Miltenyi Biotec, Macquarie Park, Australia) and treated with E64 protease inhibitor (ThermoFisher Scientific, Scoresby, Australia) until mature merozoites were formed. Merozoites were released forcing them through a 1.2 µm filter.
# Purified whole merozoites were resuspended in PBS supplemented with a cocktail of protease inhibitors (Roche, Castle Hill, Australia). Isolated merozoites were used to coat Nunc Maxisorp™ plates at 1 × 10^7/well and incubated overnight at 4 °C. The plates were then blocked with 1% casein in PBS at 37 °C for 2 h (or overnight at 4 °C). Pooled sera samples were added to wells at two-fold serial dilution in duplicate with a starting dilution of 1:500 and incubated at RT for 1 h. The plates were further incubated with HRP-conjugated goat anti-mouse IgG antibody diluted at 1:1000 in 0.1% casein in PBS at RT for 1 h. The plates were washed six times with PBS between each incubation step. Finally, 3,3′,5,5′-tetramethylbenzidine (TMB) substrate (Thermo Fisher Scientific, Scoresby, Australia) was added to the wells for the development of colour for 15 min and the reaction was stopped with 1 M sulfuric acid. The OD was measured at 450 nm.
# The ability to induce an immune response that can recognise parasite MSP2 is essential in the design of an MSP2-based peptide vaccine. We isolated merozoites from both 3D7 and FC27 (D10 clone) strains of P. falciparum, coated them on ELISA plates and probed them with sera from the immunised mice (Figure 6). mAb 4D11 and the MSP2 mix pre-bleed were also included as positive and negative controls, respectively.
# [4] = biological target: 9H4 IgG; test: SPR competition binding assay, mAb 9H4; design: species or system mouse; settings: SPR competition assay (Biacore T200); 3D7 MSP2 immobilised on CM5 chip; eight three-fold dilutions of peptide from 10 µM with 50 nM 9H4 IgG; alanine scan of 16-residue MSP2_207–222; read-out: Kd against 9H4 IgG
# Procedure: as §1
# In our previous work, the minimal epitope and key residues involved in 4D11 binding were defined as the 8-residue peptide 3D7-MSP2_215–222, with Lys216, Glu217 and Asn218 crucial for binding. To characterise the epitope of 9H4 and compare it with that of 4D11, the same alanine-scan peptides were used to probe 9H4 binding (Figure 1A,B). Affinities for 9H4 binding were measured by SPR, using a competition binding assay described previously.
# [5] = SPR competition binding assay, peptides for KLH conjugation (Table 2), 3D7 MSP2 on CM5 chip, 50 nM 4D11 IgG
# [6] = SPR competition assay (Biacore T200), 3D7 MSP2 immobilised on CM5 chip, eight three-fold dilutions of peptide from 10 µM with 50 nM 4D11 IgG, alanine scan of 16-residue MSP2_207–222
Compound,"Kd [1, 5] [µM]",specificity of the induced antibodies (peptide array A-I) [2],reactivity of pooled sera with 3D7 merozoites [3],Kd [4] [µM],"Kd [1, 6] [µM]"
CC(=O)N[C@@H](CO)C(=O)N[C@@H](CCC(N)=O)C(=O)N[C@@H](CCCCN)C(=O)N[C@@H](CCC(=O)O)C(=O)N[C@H]1CSSC[C@@H](C(=O)NCC(=O)N[C@@H](C)C(=O)N[C@@H](C)C(=O)N[C@@H](CS)C(N)=O)NC(=O)[C@H](CC(N)=O)NC(=O)[C@H](CCC(=O)O)NC(=O)[C@H](CCCCN)NC(=O)[C@H](CC(N)=O)NC(=O)CNC(=O)[C@H](CC(=O)O)NC(=O)[C@H]([C@@H](C)O)NC1=O [Peptide A1] (Ac-SQKECTDGNKENCGAAC-NH2; disulfide 5-13),0.2,primarily against peptides C and D,"followed by K209A, A1, C1 and L1",–,–
CC(=O)N[C@@H](CC(N)=O)C(=O)N[C@@H](CCCCN)C(=O)N[C@@H](CCC(=O)O)C(=O)N[C@@H](CC(N)=O)C(=O)N[C@H]1CSSC[C@@H](C(=O)NCC(=O)N[C@@H](C)C(=O)N[C@@H](C)C(=O)N[C@@H](CS)C(N)=O)NC(=O)[C@H](CC(N)=O)NC(=O)[C@H](CCC(=O)O)NC(=O)[C@H](CCCCN)NC(=O)[C@H](CC(N)=O)NC(=O)CNC(=O)[C@H](C)NC(=O)[C@H](C)NC(=O)CNC1=O [Peptide L1] (Ac-NKENCGAAGNKENCGAAC-NH2; disulfide 5-14),0.47,almost exclusively directed to the 4D11 epitope,"followed by K209A, A1, C1 and L1",–,–
CC(=O)N[C@@H](CO)C(=O)N[C@@H](C)C(=O)N[C@@H](CCCCN)C(=O)N[C@@H](CCC(=O)O)C(=O)N[C@H]1CSSC[C@@H](C(=O)NCC(=O)N[C@@H](C)C(=O)N[C@@H](C)C(N)=O)NC(=O)[C@H](CC(N)=O)NC(=O)[C@H](CCC(=O)O)NC(=O)[C@H](CCCCN)NC(=O)[C@H](CC(N)=O)NC(=O)CNC(=O)[C@H](CC(=O)O)NC(=O)[C@H]([C@@H](C)O)NC1=O [Peptide Q208A] (Ac-SAKECTDGNKENCGAA-NH2; disulfide 5-13),–,–,–,2.9,0.4
C[C@@H]1NC(=O)CNC(=O)[C@@H]2CSSC[C@H](NC(=O)[C@H](CC(N)=O)NC(=O)[C@H](CCC(=O)O)NC(=O)[C@H](CCCCN)NC(=O)[C@H](CC(N)=O)NC(=O)CNC(=O)[C@H](C)NC1=O)C(=O)NCC(=O)N[C@@H](C)C(=O)N[C@@H](C)C(=O)N[C@@H](CS)C(=O)N[C@@H](CC(N)=O)C(=O)N[C@@H](CCCCN)C(=O)N[C@@H](CCC(=O)O)C(=O)N[C@@H](CC(N)=O)C(=O)N2 [Peptide C1] (cyclo(NKENCGAAGNKENCGAAC); disulfide 5-14),0.44,almost exclusively directed to the 4D11 epitope,"followed by K209A, A1, C1 and L1",–,–
CC(=O)N[C@@H](CO)C(=O)N[C@@H](CCC(N)=O)C(=O)N[C@@H](C)C(=O)N[C@@H](CCC(=O)O)C(=O)N[C@H]1CSSC[C@@H](C(=O)NCC(=O)N[C@@H](C)C(=O)N[C@@H](C)C(N)=O)NC(=O)[C@H](CC(N)=O)NC(=O)[C@H](CCC(=O)O)NC(=O)[C@H](CCCCN)NC(=O)[C@H](CC(N)=O)NC(=O)CNC(=O)[C@H](CC(=O)O)NC(=O)[C@H]([C@@H](C)O)NC1=O [Peptide K209A] (Ac-SQAECTDGNKENCGAA-NH2; disulfide 5-13),0.2,shifted antibody recognition towards the 4D11-specific epitope represented by peptides E and F,"followed by K209A, A1, C1 and L1",7.3,0.3
